Laboratory results published in ChEMBL document CHEMBL1777782, “Indole 5-carboxamide Thumb Pocket I inhibitors of HCV NS5B polymerase with nanomolar potency in cell-based subgenomic replicons (part 2): central amino acid linker and right-hand-side SAR studies” (Bioorg Med Chem Lett, 2011).
pEC50, pIC50: −log10 of the molar value. ≈ marks a conversion by molar mass, not a printed value.

How the values were obtained:
[1] = Inhibition of HCV 1b NS5B RNA dependent RNA polymerase by scintillation proximity assay; design: species or system Hepacivirus hominis
[2] = Half life in human liver microsomes at 10 uM
physchem = details: phosphate buffer, pH 7.2
[3] = AUC in overnight-fasted Sprague-Dawley rat at 10, mg/kg, po administered by oral gavage; assay type: ADME, organism-based; details: plasma
[4] = Permeability across apical to basolateral side in human Caco2 cells; details: Caco-2
Hepatitis C virus = experiment: Antiviral activity against Hepatitis C virus genotype 1b infected in human Huh-7 cells assessed as inhibition of viral replication after 72 hrs; assay type: functional, organism-based, Hepacivirus hominis; details: Huh-7, 72 h
[5] = Selectivity ratio for polio virus RNA-dependent RNA polymerase to HCV 1b NS5B RNA dependent RNA polymerase
[6] = Half life in rat liver microsomes at 10 uM; assay type: ADME, Microsome
[7] = Tmax in overnight-fasted Sprague-Dawley rat at 10, mg/kg, po administered by oral gavage; assay type: ADME, organism-based; details: in vivo
[8] = Selectivity ratio for mammalian DNA-dependent RNA polymerase II to HCV 1b NS5B RNA dependent RNA polymerase
[9] = Cmax in overnight-fasted Sprague-Dawley rat at 10, mg/kg, po administered by oral gavage; assay type: ADME, organism-based; details: in vivo
[10] = Mean retention time in overnight-fasted Sprague-Dawley rat at 10, mg/kg, po administered by oral gavage; assay type: ADME, organism-based; details: in vivo

Structure (SMILES)	pIC50 [1]	half-life at 10 µM ([2]; microsomes) [min]	solubility thermodynamic at 24 h (physchem) [µg/mL]	AUC [3] [µM·h]	Papp A→B [4] [×10⁻⁶ cm/s]	pEC50 (Hepatitis C virus)	Ratio [5]	half-life at 10 µM [6] [min]	Tmax [7] [min]	Ratio [8]	Cmax [9] [nM]	MRT [10] [min]	half-life at 10 µM ([2]; liver microsomes) [min]
Cn1c(-c2ccccn2)c(C2CCCCC2)c2ccc(C(=O)NC3(C(=O)Nc4ccc(/C=C/C(=O)O)cc4)CCC3)cc21	7.28	50	6 (≈ 10.4 µM)	0.35	39	7.37	> 150	17	30	> 150	290		
CN1CC[C@@](NC(=O)c2ccc3c(C4CCCCC4)c(-c4ccccn4)n(C)c3c2)(C(=O)Nc2ccc(/C=C/C(=O)O)cc2)C1	7.68	456	15 (≈ 24.8 µM)	0.81	8.1	7.47	> 150	18	30	> 150	320	228	
CN1CCC(NC(=O)c2ccc3c(C4CCCCC4)c(-c4ccccn4)n(C)c3c2)(C(=O)Nc2ccc(/C=C/C(=O)O)cc2)CC1	8.00		22 (≈ 35.5 µM)		0.6	7.22	> 150	34		> 150	< 100		148
Cn1c(-c2ccccn2)c(C2CCCCC2)c2ccc(C(=O)N[C@@]3(C(=O)Nc4ccc(/C=C/C(=O)O)cc4)CCCNC3)cc21	7.96		22 (≈ 36.3 µM)		0.6	7.70	> 150	17		> 150	< 100		84
Cn1c(-c2ccccn2)c(C2CCCCC2)c2ccc(C(=O)NC(C)(C)C(=O)Nc3ccc(/C=C/C(=O)O)cc3)cc21									15				
Cn1c(-c2ccccn2)c(C2CCCCC2)c2ccc(C(=O)NC(C)(C)C(=O)Nc3ccc(CCC(=O)O)cc3)cc21	6.88		244 (≈ 431 µM)	0.81	12.7	6.57	> 150		30	> 150	630	102	63
Cn1c(-c2ccccn2)c(C2CCCCC2)c2ccc(C(=O)N[C@@]3(C(=O)Nc4ccc(/C=C/C(=O)O)cc4)CCNC3)cc21	7.64		10 (≈ 16.9 µM)		0.5	7.08	> 150			> 150			> 300
Cc1c(C(=O)O)sc2ccc(NC(=O)C3(NC(=O)c4ccc5c(C6CCCCC6)c(-c6ccccn6)n(C)c5c4)CCC3)cc12	6.91		112 (≈ 180 µM)		0.6	7.17	> 150			> 150			79
Cn1c(-c2ccccn2)c(C2CCCCC2)c2ccc(C(=O)N[C@@]3(C(=O)Nc4ccc(-c5cncnc5)cc4)CCNC3)cc21	7.19		9 (≈ 15 µM)		< 0.1	6.89	> 150			> 150			64
Cn1c(C(=O)O)cc2cc(NC(=O)[C@]3(NC(=O)c4ccc5c(C6CCCCC6)c(-c6ccccn6)n(C)c5c4)CCCNC3)ccc21	7.36		14 (≈ 22.1 µM)		< 0.1	6.61	> 150			> 150			28
Cn1c(-c2ccccn2)c(C2CCCCC2)c2ccc(C(=O)NC3(C(=O)Nc4ccc(C(=O)O)cc4)CCC3)cc21	7.03	21	336 (≈ 610 µM)		9.7	6.96	> 150	9		> 150	500		
